Source: paper PMC7106487, “Design, Synthesis and Discovery of N,N’‐Carbazoyl‐aryl‐urea Inhibitors of Zika NS5 Methyltransferase and Virus Replication” (Chemmedchem, 2020)
Like-named read-outs stand apart in the source and are kept apart here.

Tests used:
ZIKV NS5-MTase = biological target: T1, ZIKV NS5-MTase (Zika virus, UniProt Q32ZE1); test: MTase inhibition assay ([3H]-SAM, GpppAC4 RNA substrate, DEAE filter binding); type: biochemical; settings: for inhibition at 50 µM / inhibition of ZIKV NS5-MTase: initial screen, compounds at 50 μM, 30 min at 30 °C
T1 construct: made in house
Experimental: (§1) The library of compounds 9, 11, 12, 14, 15, 16 and 21 was then assessed on different purified recombinant MTases. All compounds were initially screened at 50 μM against ZIKV NS5‐MTase and hRNMT as well as against DENV NS5‐MTase due to its similarity with ZIKV protein. The SAM mimetic sinefungin was included as control.
(§2) The MTases were incubated with radiolabeled [^3H]‐SAM together with the GpppAC4 RNA substrate and the different compounds at 50 μM. The reaction was stopped after 30 mins at 30 °C. The sample products were filtered on a DEAE membrane to remove non‐incorporated [^3H]‐SAM, and radioactivity transferred on the RNA substrate was counted. […]
(§3) DENV, ZIKV and hRNMT MTase production and purification
(§4) The coding sequence of the ZIKV MTase domain was cloned in pDest 14 (Invitrogen) expression vector as recently described,9 and the DENV and ZIKV MTase were produced and purified following the protocols applied for the DENV MTase.10 The human N7-MTase (hRNMT) was cloned in pDest 14 (Invitrogen) expression vector as described.11 The hRNMT was produced in e.coli Rosetta (DE3) cells transformed with pDest14/6His -hRNMT and purified on immobilized-metal-affinity chromatography (IMAC, Amersham Biosciences) followed by hearine, as described previously.11
(§5) The MTase activity of the different recombinant proteins was assayed upon pre -incubation of the MTase (5 min) with a selected fragment and the reactions were started by addition of a […]
(§6) small capped RNA substrate GpppAC4 with the [3H]AdoMet.12 The MTase activity assay was performed in 20 µl samples containing 40 mM Tris-HCl pH 7.5, 5 mM DTT (except for hRNMT), 10 µM AdoMet (0.2-2 µCi [3H]SAM), 1 µM of DENV or ZIKV MTase or 200 nM of hRNMT, 1 µM GpppAC4 in presence of 1µl of compounds solubilized in DMSO 100%.
(§7) Reactions were incubated at 30°C for 30 min and stopped by 20-fold dilution in an ice-cold 100 µM AdoHcy (SAH) solution. Samples were then transferred onto a DEAE membrane (DEAE Filtermat; Wallac) by using a Filtermat Harvester (Packard Instruments) washed with 0.01 M ammonium formate (pH 8.0), water and 95 % ethanol, and the radioactivity transferred onto RNA was measured using a Wallac 1450 MicroBeta Trilux Liquid Scintillation Counter.
(§8) The inhibitor concentration at 50% activity (IC50) was determined by performing the MTase assays in presence of serial dilution of the inhibitor in DMSO (final concentration in the assay 5%). All data points were measured in duplicate. The IC50 values were determined by curve fitting with Prism software using a logistic dose-response function: % activity = 100/(1+[I]/IC50)b, where b corresponds to the slope factor and [I] to inhibitor concentration. […]
(§9) Spectrometer using low-resolution ESI or high-resolution nano ESI techniques. The purity of the compounds was assessed by reverse -phase liquid chromatography coupled with a mass spectrometer (Agilent series 1100 LC/MSD) with a UV detector at λ = 254 nm and an electrospray ionization source (ESI). HPLC analysis was carried out using a Perkin -Elmer 1100 HPLC system coupled with UV/Vis set to 254 nm. Mass spectra were acquired in positive mode scanning over the mass range of 50–1500. The following ion source parameters were used: drying gas flow, […]; nebulize pressure, 40 psig; and drying gas temperature, 350 […]
(§10) performed using commercially available pre-coated plates and visualized with UV light at 254 nm; KMnO4 was used to reveal the products. Flash column chromatography was carried out using Sigma Aldrich silica gel particle size, 40-63 µm particle size 60 Å. All reactions were conducted under a nitrogen atmosphere in oven-dried glassware unless stated otherwise. All solvents and commercially available reagents were used as received.

hRNMT (human N7-MTase) = biological target: T2, hRNMT (human N7-MTase) (Homo sapiens, UniProt O43148); test: as above; type: biochemical; settings: dose-response, 200 nM hRNMT, 10 µM AdoMet, 30 min at 30 °C
T2 construct: 6His (N); made in house; host or cells: E. coli Rosetta (DE3)
Experimental: as §1, §2, §3, §4, §5, §6, §7, §8, §9, §10

ZIKV = test: CPE-reduction assay, inhibition of ZIKV replication; parameters: species or system Zika virus (ZIKV); settings: cell-based CPE-reduction assay; for EC50: Zika virus
Experimental: (§11) Finally, the ability of all the derivatives synthesized in this work to inhibit ZIKV replication was assessed. […]

in vitro [1] = type: cell-based; settings: ZIKV CC50
Experimental: as §11

host cell = test: in vitro; type: cell-based
Experimental: as §11

DENV NS5-MTase = DENV NS5-MTase (Dengue virus type 3, UniProt P27915); test: MTase inhibition assay ([3H]-SAM, GpppAC4 RNA substrate, DEAE filter binding); type: biochemical; settings: initial screen, compounds at 50 μM, 30 min at 30 °C
Experimental: as §1, §2, §3, §4, §5, §6, §7, §8, §9, §10

DENV = test: Cell-based antiviral activity against DENV; settings: Dengue virus; cell-based assay
in vitro [2] = type: cell-based

T1 sequence (Q32ZE1 2517-2781): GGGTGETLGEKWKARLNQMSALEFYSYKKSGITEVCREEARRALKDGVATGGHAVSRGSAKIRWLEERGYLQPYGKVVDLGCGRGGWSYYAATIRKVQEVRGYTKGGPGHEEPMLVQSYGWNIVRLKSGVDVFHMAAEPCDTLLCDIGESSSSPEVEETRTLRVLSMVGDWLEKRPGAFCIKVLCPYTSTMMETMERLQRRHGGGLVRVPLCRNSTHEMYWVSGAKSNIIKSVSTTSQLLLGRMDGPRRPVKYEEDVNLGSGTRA
T2 sequence (O43148 whole entry): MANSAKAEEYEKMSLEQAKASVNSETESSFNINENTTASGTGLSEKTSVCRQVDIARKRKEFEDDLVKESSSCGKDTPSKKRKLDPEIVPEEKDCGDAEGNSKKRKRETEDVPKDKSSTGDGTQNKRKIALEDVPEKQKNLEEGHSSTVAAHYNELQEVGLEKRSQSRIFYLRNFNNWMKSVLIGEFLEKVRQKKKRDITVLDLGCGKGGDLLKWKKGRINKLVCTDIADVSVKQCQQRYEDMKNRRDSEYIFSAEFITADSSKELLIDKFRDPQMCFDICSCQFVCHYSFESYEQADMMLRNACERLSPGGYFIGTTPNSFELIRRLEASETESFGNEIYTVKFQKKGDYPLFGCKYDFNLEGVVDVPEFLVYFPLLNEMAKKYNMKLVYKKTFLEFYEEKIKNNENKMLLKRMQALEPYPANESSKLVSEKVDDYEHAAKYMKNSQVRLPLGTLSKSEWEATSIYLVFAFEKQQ
Chain of DENV NS5-MTase (P27915 2491-2753): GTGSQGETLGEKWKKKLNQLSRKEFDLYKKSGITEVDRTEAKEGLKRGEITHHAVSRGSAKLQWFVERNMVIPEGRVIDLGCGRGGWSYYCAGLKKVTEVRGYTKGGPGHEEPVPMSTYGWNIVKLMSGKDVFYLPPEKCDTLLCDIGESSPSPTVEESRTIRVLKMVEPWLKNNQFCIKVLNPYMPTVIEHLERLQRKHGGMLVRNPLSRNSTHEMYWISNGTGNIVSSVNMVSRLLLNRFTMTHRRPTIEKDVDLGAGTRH

| Compound | IC50 (ZIKV NS5-MTase) | inhibition at 50 µM (ZIKV NS5-MTase) | IC50 (hRNMT (human N7-MTase)) | EC50 (ZIKV) | CC50 (in vitro [1]) | also measured |
| --- | --- | --- | --- | --- | --- | --- |
| CCn1c2ccccc2c2cc(NC(=O)Nc3ccc([N+](=O)[O-])cc3C)ccc21 [Compound 6] | 35 ± 5 µM | > 30% | 13.9 ± 0.7 µM | > 3.99 µM | > 3.99 µM | ZIKV EC50 (ZIKV): devoid of any antiviral activity; CC50 (host cell): 3.99 µM |
| CCn1c2ccccc2c2cc(NC(=O)Nc3ccc([N+](=O)[O-])cc3Cl)ccc21 [Compound 9a] | 46 ± 1.1 µM | > 30% | ~122 µM | > 50 µM | 30.7 µM |  |
| CCn1c2ccccc2c2cc(NC(=O)Nc3ccc(C#N)cc3)ccc21 [Compound 9b] | ~144 µM |  | ~253 µM | > 10 µM | > 10 µM |  |
| CCn1c2ccccc2c2cc(NC(=O)Nc3ccc(OC)cc3OC)ccc21 [Compound 9c] |  |  | 27.4 ± 1.9 µM | > 10 µM | > 10 µM |  |
| CCn1c2ccccc2c2cc(NC(=O)Nc3ccc(I)cc3)ccc21 [Compound 9d] | ~397 µM | > 30% | 5.3 ± 0.4 µM | > 50 µM | > 50 µM |  |
| CCn1c2ccccc2c2cc(NC(=O)Nc3ccc(C(F)(F)F)cc3)ccc21 [Compound 9f] |  |  | 6.8 ± 0.5 µM |  |  |  |
| CCn1c2ccccc2c2cc(NC(=S)NCc3ccccc3)ccc21 [Compound 11b] | 70 ± 1.3 µM |  | ~112 µM | 4.78 µM | 19.6 µM |  |
| CCn1c2ccccc2c2cc(NC(=O)Nc3ccc(N)cc3C)ccc21 [Compound 15] |  | 25% |  | 1.67 µM | > 12.5 µM | inhibition of DENV NS5-MTase (DENV NS5-MTase): did not show any effect; EC50 (DENV): 9.75 µM; CC50 (in vitro [2]): 20 µM |
| CCn1c2ccccc2c2cc(NC(=O)C(N)CCCCN)ccc21 (stereo not shown) [Compound 16] |  |  |  |  |  | inhibition of ZIKV NS5-MTase (ZIKV NS5-MTase): barely inhibited |
| Cc1cc([N+](=O)[O-])ccc1NC(=O)Nc1ccc2c(c1)c1ccccc1n2CCc1ccccc1 [Compound 21b] | 114 ± 1.3 µM | > 30% |  | 12.5 µM | 20 µM | ZIKV CC50 (host cell): showed toxicity |
| O=C(Nc1ccc(I)cc1)Nc1ccc2c(c1)c1ccccc1n2Cc1ccccc1 [Compound 21c] | 23 ± 1.2 µM | > 30% |  |  |  |  |
| O=C(Nc1ccc(I)cc1)Nc1ccc2c(c1)c1ccccc1n2CCc1ccccc1 [Compound 21d] |  |  |  | 25 µM | 100 µM | inhibition of ZIKV NS5-MTase (ZIKV NS5-MTase): poor inhibition |
| COc1ccc(NC(=O)Nc2ccc3c(c2)c2ccccc2n3Cc2ccccc2)c(OC)c1 [Compound 21e] | 48 ± 1.3 µM |  |  |  |  |  |
| COc1ccc(NC(=O)Nc2ccc3c(c2)c2ccccc2n3CCc2ccccc2)c(OC)c1 [Compound 21f] | 26 ± 1.2 µM |  |  | > 20 µM | 20 µM | ZIKV CC50 (host cell): showed toxicity |
| Nc1ncnc2c1ncn2[C@@H]1O[C@H](C[C@@H](N)CC[C@H](N)C(=O)O)[C@@H](O)[C@H]1O [Sinefungin, reference compound] | 1.18 ± 0.05 µM |  |  |  |  |  |
